This note sets out measurements from article PMC6271245, “Discovery of Gramine Derivatives That Inhibit the Early Stage of EV71 Replication in Vitro” (Molecules, 2014).

The subject of series [1] is EV71. Description: Analysis of effective stage (treatment before, during or post infection) in RD cells. It counts as cell-based, Enterovirus 71. The conditions noted are these: for titers of virus from infected cells, treatment before infection (preventive effect): RD cells pretreated 2 h with 10 µg/mL 4a, 20 µg/mL 4i, 40 µg/mL 4r or 4s, 48 h; for inhibition of virus-induced CPEs, post-infection treatment: up to 40 µg/mL. Here is the method:
To identify the step in the viral life cycle that is affected by these compounds, the assays were performed using three different treatment protocols. […] For all treatments, cell viability and progeny virus yields were measured after 48 h of infection.
Figure 2 Analysis of modes of action against EV71 of gramine derivatives. Analysis of effective stage. The RD cells were treated with tested compounds before, simultaneously or after EV71 (100 TCID50) inoculation: antiviral effects were detected by measuring (A) cell viability and (B) progeny virus yields (10 µg/mL 4a, 20 µg/mL 4i, 40 µg/mL 4r and 4s) 48 h post infection; (C) Analysis of the effects on EV71 adsorption. Mock- or 10 µg/mL 4a, 20 µg/mL 4i, 40 µg/mL 4r and 4s-treated EV71 (10^4 TCID50) was spinoculated onto RD cells and adsorbed for 2 h; intracellular virus was subjected to titration using the TCID50 method; (D) Effects on EV71 release from RD cells. RD cells infected with 100 TCID50 of EV71 were incubated with 10 µg/mL 4a, 20 µg/mL 4i, 40 µg/mL 4r and 4s for 12 h, of both cells and supernatants (intra- and extracellular), or of cells or supernatants harvested separately for virus titration. […] Values represent the mean ± standard deviation of three independent experiments.
(§1) Cell viability was assessed by an MTT assay, which functions based on the reduction of a MTT into formazan dye by active mitochondria. The cells were treated with 100 µL of MTT (1 mg/mL, Sigma, St. Louis, MO, USA) and incubated at 37 °C for 4 h. The reaction was blocked by DMSO and measured in a microplate reader (Bio-Tek Instruments, Winooski, VT, USA) at 492 nm. The untreated control was arbitrarily set as 100%.
The virus suspension, serially diluted 10-fold with DMEM containing 2% FBS, was inoculated to cells in a 96-well plate. After 1 h incubation at 37 °C in 5% CO2, unbinding virus was washed out and MM was added to the cells. After 2 days, the infected cells were monitored for cytopathic effects (CPEs). The virus titer was calculated by the Reed–Muench method.

Series [2] deals with EV71. Description: Time-of-addition assay, progeny virus yield. It counts as cell-based, Enterovirus 71. The settings on record: compound present -1-10 h pi (similar for 0–10 h and 2–10 h); 10 µg/mL 4a, 20 µg/mL 4i, 40 µg/mL 4r or 4s; RD cells; 12 h pi. Here is the method:
To further understand the mechanisms of these gramine derivatives against EV71 propagation in cells, a time-of-addition experiment was performed. For this experiment, 10 µg/mL 4a, 20 µg/mL 4i, or 40 µg/mL 4r or 4s were added to infected cultures at different time periods (with 2 h intervals) and the reductions in virus yield relative to untreated cultures were determined at 12 h pi. […] With drugs treatments during other periods after EV71 infection, a gradual increase of viral yields was observed, reflecting the loss of the antiviral effects of the compounds. Results from this experiment indicate that these gramine derivatives may exert antiviral effects via the same action mechanism and mainly interfere with the early events of virus replication.
Figure 3 Time-of-addition assay. 10 µg/mL 4a, 20 µg/mL 4i, or 40 µg/mL 4r or 4s were added to RD cells at different time periods after EV71 infection. At 12 h pi, the progeny virus yield was determined (−1–0 h: viral infection period; 0–10 h: period for virus proliferation in the cells). Values are represented as the mean ± standard deviation.
Time-of-addition experiments were carried out, to estimate the point where the compound interfered with the replication cycle of EV71. The RD cells were infected with 100 TCID50 of EV71 and then 10 µg/mL 4a, 20 µg/mL 4i, or 40 µg/mL 4r or 4s was added at different time phases (−1–0 h, 0–10 h, 2–10 h, 4–10 h, 6–10 h, 8–10 h and −1–10 h pi, where −1–0 h is the viral infection period and 0–10 h is the period for virus proliferation in the cells). The cells and supernatants were harvested at […] and subjected to three freeze–thaw cycles, after which the viruses were titered by the Reed-Muench method.

Series [3] deals with Enterovirus 71 (EV71). Put plainly: Inhibition of EV71-induced cytopathogenicity (CPE) in Vero cells, MTT. It counts as cell-based. The settings on record: Enterovirus A, read-out: EC50 (µg/mL) Vero. Here is the method:
(§2) The antiviral activities of gramine and its derivatives against EV71 based on inhibition of virus-induced cytopathogenicity effects (CPEs) in African green monkey kidney cells (Vero) and rhabdomyosarcoma cells (RD) were examined. The cytotoxic effects were also evaluated. The inhibitory activities expressed as half maximal effective concentration (EC50) values and selectivity indexes (SI) for the target compounds are presented in Table 1, and the dose-dependent antiviral effects are shown in Figure 1A.
Figure 1 Gramine and its synthetic derivatives inhibited virus-induced CPE. (A) Vero cells were infected with 100 TCID50 of EV71 mixed with serial dilutions of tested compounds for 1.5 h at 37 °C; the inoculum was aspirated and cells were incubated with DMEM/tested compounds at 37 °C, 5% CO2 for 48 h pi. The viability of the cells was determined with an MTT assay; (B) Morphology image of Vero and RD cells treated with compounds 4a, 4i, 4r, and 4s for 48 h pi. (magnification, 20×).
(§3) The activity of compounds against EV71 was determined based on the inhibition of virus-induced cytopathogenicity effects (CPEs) in acutely infected cells. Vero and RD cells grown to 90% confluency in 96-well dishes were washed with phosphate buffered saline (PBS) and infected with 100 TCID50 of EV71 mixed with serial dilutions of tested compounds for 1.5 h at 37 °C. The inoculum was aspirated and cells were incubated with DMEM and test compounds at 37 °C, 5% CO2 for 48 h. The CPEs were observed microscopically and the viability of the cells was determined with a 3-(4,5-dimethylthiazol-2-yl)-2,5-diphenyltetrazolium bromide (MTT) assay. The concentrations required for the test compounds to achieve 50% protection from virus-induced cytopathogenicity (EC50) were determined. Adverse effects of these compounds on the host cells were also assessed by means of the MTT-method; by exposing uninfected cells to various concentrations of test compounds for 48 h at 37 °C, the viability of the cells was detected. The 50% cell cytotoxic concentrations (CC50) of compounds were calculated with the SPSS software (SPSS, Chicago, IL, USA). Selectivity indexes were calculated as the ratio of CC50: EC50.
as §1
(Cytopathic effects are the visible damage that an infection or toxin causes in cultured cells.)

The test system of series [4] is Enterovirus 71 (EV71). Description: Inhibition of EV71-induced cytopathogenicity (CPE) in RD cells, MTT. It counts as cell-based. The settings on record: for EC50: Enterovirus A, read-out: EC50 (µg/mL) RD; for inhibition of virus-induced CPE (morphology): 10 µg/mL 4a, 20 µg/mL 4i, 40 µg/mL 4r or 4s, 48 h pi. How it is done: as §2, §3, §1
Series [5] deals with EV71. Description: Analysis of effective stage (treatment before, during or post infection) in RD cells. It counts as cell-based, Enterovirus 71. The settings on record: up to a concentration of 40 µg/mL.
Where [6] appears, read: concentration for 50% protection from virus-induced cytopathogenicity, Vero cells, 100 TCID50 EV71, 48 h, MTT, mean ± SD of three experiments.
The mark [7] stands for this setting: concentration for 50% protection from virus-induced cytopathogenicity, RD cells, 100 TCID50 EV71, 48 h, MTT.
Where [8] appears, read: Enterovirus A, RD cells, 100 TCID50 EV71, 48 h, MTT, read-out: viability rate of infected cells, post-infection treatment.

≈ marks a conversion by molar mass, not a printed value.

One may read the viability as the share of living cells, or the viability signal relative to a control. Turning to `c1ccc(C(Nc2ccccn2)c2c[nH]c3ccccc23)cc1` (centres unmarked) [Compound 4a], the viability at 10 µg/mL in series [1] (Enterovirus A, 10 µg/mL, RD cells, 100 TCID50 EV71, 48 h, MTT, read-out: viability rate of infected cells, post-infection treatment) is 85.8%. The “titers of virus from infected cells, treatment before infection (preventive effect)” value (shortened to “titers of virus from infected cells”) in series [1] is given as “nearly the same as those from untreated cells”. Moreover, the “inhibition of CPEs, post-infection treatment” value in series [1] (at 40 µg/mL and 20 µg/mL, due to cytotoxic effects on cells) is on record as “no inhibition of CPEs”. Also, in series [2], the “titers of the progeny virus, time of addition” value (“titers of the progeny virus” below) is listed as “strongly reduced”. Further, the EC50 is 12.7 ± 3.2 µg/mL (≈ 42.4 µM) in series [3] (setting [6]) and 5.5 ± 2.4 µg/mL (≈ 18.4 µM) in series [4] (setting [7]). Further, the “inhibition of virus-induced CPE (morphology)” value (“inhibition … (morphology)” below) in series [4] (RD cells) is recorded as “nearly complete inhibition of CPE”.
In the case of `Cn1cc(C(Nc2ccccn2)c2ccc(F)cc2)c2ccccc21` (centres unmarked) [Compound 4i], the viability at 20 µg/mL in series [1] (Enterovirus A, 20 µg/mL, RD cells, 100 TCID50 EV71, 48 h, MTT, read-out: viability rate of infected cells, post-infection treatment) is 90.5%. Besides, the “titers of virus from infected cells” value in series [1] was “nearly the same as those from untreated cells”. Also, the “titers of the progeny virus” value in series [2] is given as “strongly reduced”. In addition, the results for the EC50 in series [3] (setting [6]) and in series [4] (setting [7]) were 5.5 ± 1.6 µg/mL (≈ 16.6 µM) and 6.1 ± 3.2 µg/mL (≈ 18.4 µM), respectively. In addition, the “inhibition … (morphology)” value in series [4] (RD cells) was “nearly complete inhibition of CPE”.
In the case of `Cn1cc(C(Nc2nc3ccccc3s2)c2ccccc2F)c2ccccc21` (centres unmarked) [Compound 4r], in series [1] (setting [8]), the viability at 40 µg/mL turned out to be 84.6%. The “titers of virus from infected cells” value in series [1] is given as “nearly the same as those from untreated cells”. In series [1] (RD cells), the “inhibition of virus-induced CPEs, post-infection treatment” value was “almost completely inhibited virus-induced CPEs”. The “titers of the progeny virus” value in series [2] is “strongly reduced”. The EC50 came out at 9.9 ± 1.4 µg/mL (≈ 25.5 µM) in series [3] (setting [6]) and 7.3 ± 1.3 µg/mL (≈ 18.8 µM) in series [4] (setting [7]). Besides, in series [5], the morphological cytotoxicity result is given as “no morphological cytotoxicity was observed”. Further, the “inhibition … (morphology)” value in series [4] (RD cells) was “nearly complete inhibition of CPE”.
Turning to `c1ccc(C(Nc2nc3ccccc3s2)c2c[nH]c3ccccc23)nc1` (centres unmarked) [Compound 4s], the viability at 40 µg/mL in series [1] (setting [8]) was determined as 95.7%. Further, in series [1], the “titers of virus from infected cells” value is “nearly the same as those from untreated cells”. The “inhibition of virus-induced CPEs, post-infection treatment” value in series [1] (RD cells) is “almost completely inhibited virus-induced CPEs”. Moreover, the “titers of the progeny virus” value in series [2] is given as “strongly reduced”. The EC50 was determined as 7.6 ± 2.5 µg/mL (≈ 21.3 µM) in series [3] (EV71, Vero, 48 h) and 9.1 ± 3.1 µg/mL (≈ 25.5 µM) in series [4] (EV71, RD, 48 h). Further, the morphological cytotoxicity entry in series [5] is recorded as “no morphological cytotoxicity was observed”. In series [4] (RD cells), the “inhibition … (morphology)” value was “nearly complete inhibition of CPE”.
